# A melting point compilation (Tetko et al.; mined from patent text by program, amines drawn as free bases though some values may be those of a salt)
row,Structure (SMILES),melting point [°C]
1,Cc1cnc(CNC(=O)c2sc(N3CCN(Cc4ccc(F)cc4)C3=O)nc2C)cn1,191 to 193
2,O=C(Nc1ccc(CCc2ccc(Cl)c(Cl)c2)cc1)C1CSc2ccccc2C1=O (stereo not given),234 to 236
3,Fc1ccc2nc(S)sc2c1,224 to 226
4,COc1ccccc1NC(=O)Nc1nc(Nc2ccc(CC(=O)O)cc2)nc(Nc2ccccc2-c2ccccc2)n1,> 300
5,Cc1ccc(N2CC(=O)N(C)C(=O)N2)cc1,193 to 194
6,O=C(O)CCc1cccc(Oc2cccc(-c3nnc(Nc4ccc(Cl)c(Cl)c4)s3)c2)c1,194 to 196
7,O=C(c1ccc(F)cc1)N1Cc2c(-c3ccc(F)cc3)ncn2-c2ccccc21,230 to 231
8,O=C(CC(Cc1cccc2ccccc12)C(=O)N[C@@H](Cc1c[nH]cn1)C(=O)N[C@H](CO)Cc1ccccc1)NCCc1ccccc1 (stereo not given in full),106 to 109
9,O=C(O)C1=Cc2cc(Cl)c(Oc3cccc(Cl)n3)cc2OC1C(F)(F)F (stereo not given),226 to 227
10,CC(C)c1c(O)cc(/C=C/c2ccccc2)cc1O,140 to 142
11,O=P(c1ccccc1)(c1ccccc1)C(O)C(O)P(=O)(c1ccccc1)c1ccccc1 (stereo not given),211 to 214
12,Cc1[nH]c2cc(OCc3ccccc3)ccc2c1C(=O)C1CSC(c2cccnc2)N1 (stereo not given),89 to 93
13,CC(c1oc2ccccc2c(=O)c1-c1cccc(F)c1)n1nc(-c2ccc(O)cc2)c2c(N)ncnc21 (stereo not given),244 to 247
14,CC(C)(C)OC(=O)N1CCC(Cc2c[nH]c3ccc(F)cc23)CC1,144 to 145
15,CCCCCOc1ccccc1C1=NNC(=O)CC1,50 to 52
16,CN1CC2(c3cccc(O)c3)CCCC1C2 (stereo not given),144 to 146
17,CNC(=O)c1ccccc1-c1cc(C)no1,120 to 122
18,N#CC(Br)c1ccccn1 (stereo not given),62 to 64
19,CCCCNC(=O)NC(=O)C(C)Oc1ccc(Oc2ncc(C(F)(F)F)cc2Cl)cc1 (stereo not given),126 to 127
20,Fc1ccc(-c2ccn(C3CCN(Cc4ccccc4)CC3)c2-c2ccncc2)cc1,132 to 139
21,Cn1nc(OC2c3cc(C#N)ccc3OC(C)(C)C2(C)O)ccc1=O (stereo not given),197 to 199
22,O=c1[nH]sc2nc(-c3ccccc3)nc(CCc3ccccc3)c12,144 to 147
23,COc1ccc(Cl)cc1C(=N)Nc1cc(Cl)cc(NC(=O)/C=C/c2ccccc2Cl)c1,226 to 228
24,O=C(O)c1ccc(SC(C(=O)O)c2cccc(C(F)(F)F)c2)cn1 (stereo not given),190 to 195
25,CC(C)N(Cc1ccc2cc(NC(=O)N3CCC(c4ccc(Cl)cc4)CC3)ccc2n1)C(C)C,201 to 203

row,Structure (SMILES),melting point [°C]
1,CC(C)(C)c1cc(C[C@@H]2SCNC2=O)cc(C(C)(C)C)c1O,149 to 150
2,c1ccc(P(c2ccccc2)c2c3ccccc3cc3ccccc23)cc1,204
3,O=[N+]([O-])c1cnn2c1-c1ccccc1NC2,156 to 157
4,Cc1c(NC(=O)c2ccc(OC[C@@H]3CCCO3)cc2)ccc2c1cc(CN1CCC(C)(O)CC1)n2C,210
5,COC(=O)c1ccc(N2CCCC2=O)c([N+](=O)[O-])c1,159 to 161
6,CCNn1nnnc1S,90 to 91
7,COC(=O)c1ccc2c(c1)COc1ccc(/C=C/c3ccc4c(n3)CCCC4)cc1C2SCCC(=O)O (stereo not given),121 to 123
8,CC(C)(S)[C@H]1C[C@H](C(=O)O)CS1 (relative stereo),97 to 98.3
9,O=c1[nH]c2cc(C(F)(F)F)c([N+](=O)[O-])cc2n1-c1cc(Cl)cc(Br)c1O,262 to 264
10,N#Cc1ccc(Nc2ccncc2[N+](=O)[O-])cc1,210 to 211
11,CC(=O)OCC=C(C)CS(=O)(=O)c1ccccc1,86 to 92
12,OCCON=Cc1ccc(-c2ccccc2)nc1,100 to 101
13,CC(C)(C)c1cc(C(=O)c2ccc(C#N)cc2)cc(C(C)(C)C)c1O,166 to 168
14,CCOC(=O)c1[nH]cnc1C(F)(F)F,184 to 186
15,Cc1cccc2c1N(CC(=O)N1CC3CCC(CC3)C1)C(=O)C(NC(=O)Nc1cccc(CO)c1)N=C2c1ccccc1F (stereo not given),188 to 202
16,COC(=O)CCc1cc2c(Cl)c(Cl)ccc2n1S(=O)(=O)c1ccccc1,142
17,CC(C)c1nc(C2CCCCC2)cc(-c2ccc(F)cc2)c1C=O,59 to 61
18,ClCc1cccc(CCl)n1,74.5 to 75.5
19,N[C@@H](CC(C(=O)O)=C1CCC1)C(=O)O,212 to 214
20,CNC(C)c1ccc(C2CCC(N(C)C(=O)c3ccc(Cl)cc3)CC2)cc1 (stereo not given),153 to 155
21,O=C(O)/C=C/c1cccc(OCCC(c2ccccc2)(c2ccccc2)c2ccccc2)c1,104 to 109
22,CC(C)c1ccc2[nH]c(=O)c(C(=O)c3ccccc3)c(O)c2c1,270
23,COc1ncnc2c(NC3OC(CO)C(O)C3O)ncnc12 (stereo not given),183
24,CC(C(=O)CC(C)(C)Cc1ccc(Cl)cc1)N1C(=O)c2ccccc2C1=O (stereo not given),96 to 98
25,COc1ccc(-c2ccnc(N3CCN(c4c(C)c(C)c5c(c4C)CC(C)(C)O5)CC3)n2)cc1,156 to 159

row,Structure (SMILES),melting point [°C]
1,O=c1c2c(Cl)cccc2nc(C(S)c2ncnc3[nH]cnc23)n1-c1ccccc1Cl (stereo not given),234
2,CCc1nn(CC2CC2)c2cc(C(=O)Nc3c(Cl)cncc3Cl)ccc12,148 to 150
3,CCOC(=O)C(=O)Nc1cc(C)c(C)cc1C(N)=O,190 to 193
4,CC=C1c2ccccc2CC(NO)c2ccccc21 (stereo not given),121 to 124
5,O=C(O)c1nc(Cl)sc1Cl,191
6,COc1ccc2ccc(NC(=O)c3ccco3)nc2n1,201
7,CC(C)c1ccc(CCCC(=O)O)cc1,50 to 51
8,Cc1cc(-c2ccc(C(=N)NO)o2)ccc1Br,239
9,C[C@H](CSC(=O)c1ccccc1)C(=O)N1C(c2cccs2)SC[C@H]1C(=O)O (stereo not given in full),136 to 137
10,Cc1c(-c2cncc(CO)c2)ccc2c(=O)c(C(=O)O)cn(C3CC3)c12,221 to 223
11,CCOC(=O)CN(CC1Nc2cc(Cl)c(S(N)(=O)=O)cc2S(=O)(=O)N1)C(=O)C(C)CSC(C)=O (stereo not given),127 to 130
12,NCC1CCN(Cc2ccccc2)CC1,88
13,CC(C)(O)C(C(=O)O)c1ccc(F)cc1 (stereo not given),86 to 88
14,CCOC(=O)N1CCC(n2nnnc2CCC(C)Oc2ccc3nc4[nH]c(=O)[nH]c4cc3c2)CC1 (stereo not given),233 to 236
15,CS(=O)(=O)c1n[nH]c(NCCCCOc2cccc(CN3CCCCC3)c2)n1,79 to 81
16,COc1ccccc1N1CCN(CCc2ccc3c(c2)oc(=O)n3C)CC1,137 to 138
17,C1=Cc2cc3ccccc3cc2CS1,84
18,CC1(C)CC(=C(c2ccc(O)cc2)c2ccc(C#CCCC(=O)O)cc2)CC(C)(C)C1,233 to 234
19,CCC1(CCC(=O)OC(C)(C)C)CCCN2CCc3c([nH]c4ccccc34)C21 (stereo not given),194 to 195
20,CCc1cc2c3c(cc(C)c2[nH]c1=O)CC(C)(CN=[N+]=[N-])O3 (stereo not given),211 to 212
21,CN1C(=O)CN(c2cccc(C#N)c2)NC1=O,174 to 178
22,COC(=O)c1ccc(NC(=O)c2cc(C(C)C)c(C(C)C)o2)cn1,186 to 188
23,CCCCc1ncc(/C=C(\Cc2cccs2)C(=O)O)n1Cc1ccccc1C#N,210 to 212
24,N#Cc1c(N2CCN(C(=O)c3ccco3)CC2)c2cc(Cl)ccc2n(Cc2ccccc2)c1=O,221
25,NC(=O)c1ccc(NC(=O)CCc2cnoc2-c2ccccc2)cc1,250 to 251

row,Structure (SMILES),melting point [°C]
1,O=C(CCc1ccc(OCc2ccccc2)cc1)C(F)(F)F,71 to 72
2,COC1CN(C(=O)c2cc(-c3ccccc3)c(=O)n3nc(C)c4ccsc4c23)C1,169 to 170
3,CCCOC(=O)C=Nc1cc(Cl)ccc1C(=O)O,155
4,O=C(CCCCC1(c2ccccc2)CC(O)=C(SCCc2ccccc2)C(=O)O1)NCc1ccccc1 (stereo not given),47 to 49
5,O=C(CCC(O)c1ccc(CCNS(=O)(=O)c2ccc(Cl)cc2)cc1)Nc1nnn[nH]1 (stereo not given),194 to 196
6,CCOC(=O)C1CC(=O)c2c(C)c(O)c(C)c(C)c2O1 (stereo not given),120 to 121
7,CCCCCCCCCCCCn1nnc(C(C(=O)Nc2c(C(C)C)cccc2C(C)C)(c2ccccc2)c2ccccc2)n1,154 to 156
8,CCOC(=O)CC(=O)Nc1c(-c2ccccc2)nn2ccccc12,160 to 161
9,O=C(O)[C@H](CO)NC(=O)[C@@H]1CS[C@H](c2ccccc2O)N1C(=O)CCS,140 to 145
10,Oc1ccc([C@@H]2C[C@H]2c2ccccc2)cc1 (relative stereo),78 to 79
11,CCOC(=O)Cn1c(Br)c(Br)c(C#N)c1Br,140 to 143
12,Cc1csc2c1c(C(=O)c1ccc(Cl)cc1)cn2C(C)C(=O)O (stereo not given),149
13,COc1cc(N)ccc1-c1ccc(-c2ccc(N)cc2OC)o1,201 to 202
14,CCCCCCCCCCCCNC(=O)c1cc(Br)c(OCCn2ccnn2)c(-c2cccc(C(F)(F)F)c2)c1,70.5 to 72.5
15,CCCCCCCCCCCCCCOc1ccc(C(=O)O)cc1C(C)(C)C,121 to 123
16,CCCCCCCCCCCCCCCCC(Br)CO (stereo not given),39 to 39.5
17,CCCC(=O)N1CCN(C(=O)OC2C3=C(SCCS3)C(=O)N2c2ccc3ccc(Cl)nc3n2)CC1 (stereo not given),248
18,O=Cc1cn(-c2cccnc2)nc1-c1ccc([N+](=O)[O-])o1,237 to 238
19,CC(C)NC1=NS(=O)(=O)c2cc(C(=O)O)ccc2N1,> 310
20,CC(C)NCC(O)COc1ccc2cn[nH]c(=O)c2c1 (stereo not given),232 to 235
21,COc1cc(S(=O)(=O)c2ccncc2)ccc1NC(=O)C(C)(O)C(F)(F)F (stereo not given),220 to 222
22,O=C(O)[C@H]1C=C[C@@H](c2ccc([N+](=O)[O-])cc2)n2c(=O)n(CCCl)c(=O)n21 (relative stereo),192 to 194
23,Cc1ccc(-n2c(=O)cc(C(F)(F)F)[nH]c2=S)cc1OC(C)C,227 to 228
24,Cc1c(Br)csc1-c1nc(-c2c(F)cccc2Cl)nn1C,111 to 112
25,Clc1ccc2c(c1)N=C(N1CCNCC1)c1nccn1C2,120 to 123
